According to ChEMBL document CHEMBL1201862, “PubChem BioAssay data set” (2004):
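These data come from cells grown in 96-well plates and exposed to compound for 48 hours at five concentrations. GI50: concentration for 50% inhibition of growth.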 The source made the active and inactive calls. Cut-off read from the data, not from the text of the source: active = GI50 up to about 1.1 µM and inactive = higher.

Columns and labels:
Assay in all cases: inhibition of tumour cell growth, NCI panel, 48 h
[1] = system: 786-0
[2] = system: A549
[3] = system: ACHN
[4] = system: BT-549
[5] = system: CAKI-1
[6] = system: CCRF-CEM
[7] = system: COLO 205
[8] = system: DU-145
[9] = system: EKVX
[10] = system: HCT-116
[11] = system: HCT-15
[12] = system: HL-60
[13] = system: HOP-62
[14] = system: HT-29
[15] = system: Hs-578T
[16] = system: IGROV-1
[17] = system: K562
[18] = system: KM12
[19] = system: LOX IMVI
[20] = system: M14
[21] = system: MCF7
[22] = system: MDA-MB-231
[23] = system: MDA-MB-435
[24] = system: MDA-N
[25] = system: MOLT-4
[26] = system: Malme-3M
[27] = system: NCI-H226
[28] = system: NCI-H23
[29] = system: NCI-H460
[30] = system: NCI-H522
[31] = system: NCI/ADR-RES
[32] = system: OVCAR-3
[33] = system: OVCAR-4
[34] = system: OVCAR-5
[35] = system: OVCAR-8
[36] = system: PC-3
[37] = system: RPMI-8226
[38] = system: RXF 393
[39] = system: SF-268
[40] = system: SF-295
[41] = system: SK-MEL-28
[42] = system: SK-MEL-5
[43] = system: SK-OV-3
[44] = system: SN12C
[45] = system: SNB-19
[46] = system: SNB-75
[47] = system: SR
[48] = system: T47D
[49] = system: TK-10
[50] = system: U-251
[51] = system: UACC-257
[52] = system: UACC-62
[53] = system: UO-31
[54] = system: A498
[55] = system: HOP-92
[56] = system: SF-539
[57] = system: SK-MEL-2
[58] = system: SW-620

COc1cccc2c1OC(c1cccc3ccccc13)C([N+](=O)[O-])=C2 (stereo unspecified)
GI50 [1]: 1.87 µM (inactive)
GI50 [2]: 1.95 µM (inactive)
GI50 [3]: 1.6 µM (inactive)
GI50 [4]: 1.17 µM (inactive)
GI50 [5]: 2.33 µM (inactive)
GI50 [6]: 0.312 µM (active)
GI50 [7]: 1.92 µM (inactive)
GI50 [8]: 2.65 µM (inactive)
GI50 [9]: 3.07 µM (inactive)
GI50 [10]: 1.21 µM (inactive)
GI50 [11]: 1.55 µM
GI50 [12]: 0.612 µM (active)
GI50 [13]: 2.1 µM (inactive)
GI50 [14]: 1.92 µM (inactive)
GI50 [15]: 2.48 µM (inactive)
GI50 [16]: 2.49 µM (inactive)
GI50 [17]: 0.685 µM (active)
GI50 [18]: 1.63 µM (inactive)
GI50 [19]: 1.04 µM (active)
GI50 [20]: 1.31 µM (inactive)
GI50 [21]: 0.728 µM (active)
GI50 [22]: 2.12 µM (inactive)
GI50 [23]: 1.51 µM (inactive)
GI50 [24]: 1.93 µM (inactive)
GI50 [25]: 0.552 µM (active)
GI50 [26]: 1.75 µM (inactive)
GI50 [27]: 2 µM (inactive)
GI50 [28]: 1.84 µM (inactive)
GI50 [29]: 1.9 µM (inactive)
GI50 [30]: 1.33 µM (inactive)
GI50 [31]: 1.71 µM (inactive)
GI50 [32]: 1.34 µM (inactive)
GI50 [33]: 3.32 µM (inactive)
GI50 [34]: 1.82 µM (inactive)
GI50 [35]: 4.24 µM (inactive)
GI50 [36]: 0.902 µM (active)
GI50 [37]: 3.45 µM (inactive)
GI50 [38]: 1.31 µM (inactive)
GI50 [39]: 2.96 µM (inactive)
GI50 [40]: 1.88 µM (inactive)
GI50 [41]: 1.53 µM (inactive)
GI50 [42]: 1.59 µM (inactive)
GI50 [43]: 3.11 µM (inactive)
GI50 [44]: 2 µM (inactive)
GI50 [45]: 1.53 µM (inactive)
GI50 [46]: 1.32 µM (inactive)
GI50 [47]: 0.604 µM (active)
GI50 [48]: 2.22 µM (inactive)
GI50 [49]: 2.32 µM (inactive)
GI50 [50]: 1.56 µM (inactive)
GI50 [51]: 1.54 µM (inactive)
GI50 [52]: 1.08 µM (active)
GI50 [53]: 1.44 µM (inactive)

CN(CCC(=O)O)C1=Nc2ccc(Cl)cc2C(c2ccccc2)=[N+]([O-])C1
GI50 [1]: > 100 µM (inactive)
GI50 [54]: > 100 µM (inactive)
GI50 [2]: > 100 µM (inactive)
GI50 [3]: > 100 µM (inactive)
GI50 [4]: > 100 µM (inactive)
GI50 [5]: 78.5 µM (inactive)
GI50 [6]: > 100 µM (inactive)
GI50 [7]: > 100 µM (inactive)
GI50 [8]: > 100 µM (inactive)
GI50 [9]: > 100 µM (inactive)
GI50 [10]: > 100 µM (inactive)
GI50 [11]: > 100 µM
GI50 [12]: > 100 µM (inactive)
GI50 [13]: > 100 µM (inactive)
GI50 [55]: > 100 µM (inactive)
GI50 [14]: > 100 µM (inactive)
GI50 [15]: > 100 µM (inactive)
GI50 [16]: > 100 µM (inactive)
GI50 [17]: > 100 µM (inactive)
GI50 [18]: > 100 µM (inactive)
GI50 [19]: > 100 µM (inactive)
GI50 [20]: > 100 µM (inactive)
GI50 [21]: > 100 µM (inactive)
GI50 [22]: > 100 µM (inactive)
GI50 [23]: 86.1 µM (inactive)
GI50 [24]: > 100 µM (inactive)
GI50 [25]: > 100 µM (inactive)
GI50 [26]: > 100 µM (inactive)
GI50 [27]: > 100 µM (inactive)
GI50 [28]: > 100 µM (inactive)
GI50 [29]: > 100 µM (inactive)
GI50 [30]: > 100 µM (inactive)
GI50 [31]: > 100 µM (inactive)
GI50 [32]: > 100 µM (inactive)
GI50 [33]: 72.1 µM (inactive)
GI50 [34]: > 100 µM (inactive)
GI50 [35]: > 100 µM (inactive)
GI50 [36]: > 100 µM (inactive)
GI50 [37]: > 100 µM (inactive)
GI50 [38]: > 100 µM (inactive)
GI50 [39]: > 100 µM (inactive)
GI50 [40]: > 100 µM (inactive)
GI50 [56]: > 100 µM (inactive)
GI50 [41]: > 100 µM (inactive)
GI50 [57]: > 100 µM (inactive)
GI50 [42]: > 100 µM (inactive)
GI50 [43]: > 100 µM (inactive)
GI50 [44]: > 100 µM (inactive)
GI50 [45]: > 100 µM (inactive)
GI50 [46]: > 100 µM (inactive)
GI50 [47]: > 100 µM (inactive)
GI50 [58]: > 100 µM (inactive)
GI50 [48]: > 100 µM (inactive)
GI50 [49]: > 100 µM (inactive)
GI50 [50]: > 100 µM (inactive)
GI50 [51]: > 100 µM (inactive)
GI50 [52]: > 100 µM (inactive)
GI50 [53]: > 100 µM (inactive)
